The target of the assay is T1, Acetolactate synthase, chloroplastic (Arabidopsis thaliana, UniProt P17597).
T1 sequence (P17597 whole entry): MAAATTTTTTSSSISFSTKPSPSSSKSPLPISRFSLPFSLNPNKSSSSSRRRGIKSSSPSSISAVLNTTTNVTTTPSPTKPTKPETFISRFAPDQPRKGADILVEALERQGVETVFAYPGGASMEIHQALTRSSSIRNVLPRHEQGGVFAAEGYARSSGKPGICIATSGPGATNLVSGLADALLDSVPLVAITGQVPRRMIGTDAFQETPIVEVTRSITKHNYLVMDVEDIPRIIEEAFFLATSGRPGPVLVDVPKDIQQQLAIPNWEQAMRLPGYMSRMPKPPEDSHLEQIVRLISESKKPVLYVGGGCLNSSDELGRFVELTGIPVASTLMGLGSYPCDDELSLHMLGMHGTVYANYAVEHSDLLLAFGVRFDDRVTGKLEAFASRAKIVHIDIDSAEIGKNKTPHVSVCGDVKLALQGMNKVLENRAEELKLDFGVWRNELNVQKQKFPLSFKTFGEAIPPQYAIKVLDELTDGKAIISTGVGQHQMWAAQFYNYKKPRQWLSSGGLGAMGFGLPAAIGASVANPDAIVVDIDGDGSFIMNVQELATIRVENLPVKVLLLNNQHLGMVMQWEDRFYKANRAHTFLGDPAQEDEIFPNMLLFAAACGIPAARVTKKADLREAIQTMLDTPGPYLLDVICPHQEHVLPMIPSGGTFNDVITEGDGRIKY
Description: Inhibitory activity against Acetolactate synthase (ALS) enzyme by using the rape-root growth method. As to conditions: for pIC50: read-out: IC50.

Each structure is given as a SMILES string. pIC50: −log10 of the molar value.

Broadly, the pIC50 is the IC50 on a negative log10 scale, so that one unit is a factor of ten.

In turn, `Cc1cccc(C(=O)OCn2ccc(=O)[nH]c2=O)c1` returned an IC50 of 16.04 p.p.m. The same measure, in the same setting: the value for `Cc1ccc(NS(=O)(=O)c2ccc(F)cc2)nc1` was 0.000152 M l-1; that for `O=C(OCn1ccc(=O)[nH]c1=O)c1ccc(F)cc1` was 55.86 p.p.m; that for `COc1ccccc1C(=O)OCn1ccc(=O)[nH]c1=O` was greater than 100 p.p.m. In the case of `Cc1ccnc(NS(=O)(=O)c2ccc(F)cc2)n1`, the pIC50 is 4.41. With `Cc1ccnc(NS(=O)(=O)c2cc(Cl)ccc2Cl)n1`, the pIC50 is 4.01. The same measure, in the same setting: the value for `O=S(=O)(Nc1nccs1)c1cc(Cl)ccc1Cl` was 4.07. `O=C(OCn1ccc(=O)[nH]c1=O)c1ccc(Br)cc1` had an IC50 of 55.38 p.p.m. `Cc1ccnc(NS(=O)(=O)c2ccccc2[N+](=O)[O-])n1` registered an IC50 of 0.000287 M l-1. As for `Cc1ccnc(NS(=O)(=O)c2ccc(Br)cc2)n1`, the pIC50 was 4.23. Molecule `O=C(OCn1ccc(=O)[nH]c1=O)c1ccc([N+](=O)[O-])cc1` came in with an IC50 greater than 100 p.p.m. As to `COc1ccc(C(=O)OCn2ccc(=O)[nH]c2=O)cc1`, the IC50 was greater than 100 p.p.m. The same measure, in the same setting: the value for `Cc1cnc(NS(=O)(=O)c2cc(Cl)ccc2Cl)s1` was greater than 0.000309 M l-1; that for `O=C(OCn1ccc(=O)[nH]c1=O)c1ccc(Cl)cc1` was 51.29 p.p.m.

In turn, `O=C(OCn1ccc(=O)[nH]c1=O)c1c(Cl)cc(C(F)(F)F)cc1Cl` had an IC50 greater than 100 p.p.m. On the same count and under the same terms, with `COc1cc(Cl)nc(NS(=O)(=O)c2ccc(F)cc2)n1` the figure was 0.000111 M l-1; with `O=C(OCn1ccc(=O)[nH]c1=O)c1ccc(I)cc1`, greater than 100 p.p.m; with `O=C(OCn1ccc(=O)[nH]c1=O)c1ccccc1`, 55.36 p.p.m.

Regarding `Cc1cc(C)nc(NS(=O)(=O)c2cc(Cl)ccc2Cl)n1`, the pIC50 was 4.48.

These data come from ChEMBL document CHEMBL1131784, “The design and synthesis of ALS inhibitors from pharmacophore models” (Bioorg Med Chem Lett, 1999).
